Tests used:
PfDHODH [1] = molecular target: T1, PfDHODH (Plasmodium falciparum, UniProt Q08210, DEL384-413); experiment: Isothermal titration calorimetry; assay type: binding; details: ITC, 303 K; for ΔH PfDHODH: 1σ confidence interval in parentheses
T1 sequence (Q08210 with tags, fused parts or gaps DEL384-413): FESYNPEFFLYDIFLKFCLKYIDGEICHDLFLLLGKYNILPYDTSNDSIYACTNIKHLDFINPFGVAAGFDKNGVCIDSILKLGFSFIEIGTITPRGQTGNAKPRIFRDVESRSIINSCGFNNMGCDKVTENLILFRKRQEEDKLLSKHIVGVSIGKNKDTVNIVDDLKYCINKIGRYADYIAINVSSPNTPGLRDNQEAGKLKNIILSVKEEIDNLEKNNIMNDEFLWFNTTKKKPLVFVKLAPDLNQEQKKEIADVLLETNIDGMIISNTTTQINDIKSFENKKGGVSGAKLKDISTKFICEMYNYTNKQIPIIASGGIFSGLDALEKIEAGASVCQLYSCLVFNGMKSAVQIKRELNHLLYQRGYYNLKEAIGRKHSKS

HsDHODH = HsDHODH (Homo sapiens, UniProt Q02127); experiment: DHODH steady-state inhibition, DCIP assay; assay type: biochemical
Chain of HsDHODH (Q02127 29-395 limits assumed): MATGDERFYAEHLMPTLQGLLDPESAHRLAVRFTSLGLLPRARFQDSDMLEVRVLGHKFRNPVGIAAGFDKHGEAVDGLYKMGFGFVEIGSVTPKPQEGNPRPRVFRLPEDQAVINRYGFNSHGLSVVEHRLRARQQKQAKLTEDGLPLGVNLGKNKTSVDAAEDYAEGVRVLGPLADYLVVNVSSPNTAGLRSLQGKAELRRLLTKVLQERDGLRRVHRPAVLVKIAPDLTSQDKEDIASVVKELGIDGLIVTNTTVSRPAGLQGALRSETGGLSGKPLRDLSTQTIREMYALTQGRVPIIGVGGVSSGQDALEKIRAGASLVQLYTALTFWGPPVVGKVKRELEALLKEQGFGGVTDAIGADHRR

HsDHODH L46A = HsDHODH L46A (Homo sapiens, UniProt Q02127, L45A); experiment: biochemical
Chain of HsDHODH L46A (Q02127 32-395 L45A): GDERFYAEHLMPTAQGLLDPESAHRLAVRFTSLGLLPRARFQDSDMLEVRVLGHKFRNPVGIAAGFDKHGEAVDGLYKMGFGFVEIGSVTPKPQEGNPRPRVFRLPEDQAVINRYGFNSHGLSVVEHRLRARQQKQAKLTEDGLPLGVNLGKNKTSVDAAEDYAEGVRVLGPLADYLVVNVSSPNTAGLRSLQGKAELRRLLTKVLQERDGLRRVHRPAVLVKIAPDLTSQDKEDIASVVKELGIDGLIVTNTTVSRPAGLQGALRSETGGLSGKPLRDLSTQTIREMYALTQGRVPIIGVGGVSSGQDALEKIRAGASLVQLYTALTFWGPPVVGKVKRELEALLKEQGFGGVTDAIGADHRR

HsDHODH L359A = HsDHODH L359A (Homo sapiens, UniProt Q02127, L358A); experiment: biochemical
Chain of HsDHODH L359A (Q02127 32-395 L358A): as the sequence (Q02127 32-395 L45A) above, with A14L, L327A counted along it

HsDHODH R136A = HsDHODH R136A (Homo sapiens, UniProt Q02127, R135A); experiment: biochemical
Chain of HsDHODH R136A (Q02127 32-395 R135A): as the sequence (Q02127 32-395 L45A) above, with A14L, R104A counted along it

P. falciparum 3D7 cells = details: read-out: IC50 P. falciparum 3D7 cells; cited from earlier work
PfDHODH [2] = molecular target: T2, PfDHODH (Plasmodium falciparum, UniProt Q08210); details: read-out: IC50 PfDHODH; cited from earlier work
T2 sequence (Q08210 158-569): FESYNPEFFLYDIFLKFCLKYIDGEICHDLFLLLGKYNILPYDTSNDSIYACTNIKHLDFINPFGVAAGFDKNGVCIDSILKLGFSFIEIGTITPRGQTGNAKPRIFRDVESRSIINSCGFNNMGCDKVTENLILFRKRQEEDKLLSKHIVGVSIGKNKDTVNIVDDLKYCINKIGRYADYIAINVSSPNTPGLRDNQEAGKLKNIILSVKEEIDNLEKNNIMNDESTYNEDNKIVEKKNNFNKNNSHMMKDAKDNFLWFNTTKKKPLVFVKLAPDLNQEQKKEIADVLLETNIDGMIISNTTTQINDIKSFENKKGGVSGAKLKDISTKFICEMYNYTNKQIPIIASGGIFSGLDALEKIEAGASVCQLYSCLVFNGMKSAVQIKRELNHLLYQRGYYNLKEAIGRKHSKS

rat DHODH = rat DHODH (Rattus norvegicus, UniProt Q63707); experiment: Isothermal titration calorimetry; assay type: binding; details: ITC, 303 K; for ΔH rat DHODH: 1σ confidence interval in parentheses
Chain of rat DHODH (Q63707 32-395 limits assumed): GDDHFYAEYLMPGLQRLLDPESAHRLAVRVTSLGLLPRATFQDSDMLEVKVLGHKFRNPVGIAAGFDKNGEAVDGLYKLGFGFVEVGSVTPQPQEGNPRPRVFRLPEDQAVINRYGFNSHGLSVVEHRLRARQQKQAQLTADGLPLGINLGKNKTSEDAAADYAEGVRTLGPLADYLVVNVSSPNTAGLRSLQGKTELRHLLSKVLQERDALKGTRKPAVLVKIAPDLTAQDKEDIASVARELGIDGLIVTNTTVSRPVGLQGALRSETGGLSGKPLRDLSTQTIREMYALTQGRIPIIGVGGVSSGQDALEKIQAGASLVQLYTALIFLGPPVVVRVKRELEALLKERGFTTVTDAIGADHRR

dDHODH = dDHODH (Canis lupus familiaris, UniProt A0A8I3MWX2); experiment: DHODH steady-state inhibition, DCIP assay; assay type: biochemical, dog
Chain of dDHODH (A0A8I3MWX2 29-395): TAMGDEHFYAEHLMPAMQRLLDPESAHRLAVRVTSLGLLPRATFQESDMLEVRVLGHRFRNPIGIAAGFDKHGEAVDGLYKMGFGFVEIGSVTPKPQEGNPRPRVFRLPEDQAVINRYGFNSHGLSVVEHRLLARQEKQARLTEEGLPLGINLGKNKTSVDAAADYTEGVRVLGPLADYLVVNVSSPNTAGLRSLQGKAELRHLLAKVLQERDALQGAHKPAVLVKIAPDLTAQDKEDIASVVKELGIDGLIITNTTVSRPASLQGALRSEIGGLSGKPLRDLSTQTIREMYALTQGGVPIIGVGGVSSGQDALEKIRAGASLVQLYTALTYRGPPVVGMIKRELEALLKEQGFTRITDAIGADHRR

mDHODH = mDHODH (Mus musculus, UniProt O35435); experiment: DHODH steady-state inhibition, DCIP assay; assay type: biochemical
Chain of mDHODH (O35435 29-395 limits assumed): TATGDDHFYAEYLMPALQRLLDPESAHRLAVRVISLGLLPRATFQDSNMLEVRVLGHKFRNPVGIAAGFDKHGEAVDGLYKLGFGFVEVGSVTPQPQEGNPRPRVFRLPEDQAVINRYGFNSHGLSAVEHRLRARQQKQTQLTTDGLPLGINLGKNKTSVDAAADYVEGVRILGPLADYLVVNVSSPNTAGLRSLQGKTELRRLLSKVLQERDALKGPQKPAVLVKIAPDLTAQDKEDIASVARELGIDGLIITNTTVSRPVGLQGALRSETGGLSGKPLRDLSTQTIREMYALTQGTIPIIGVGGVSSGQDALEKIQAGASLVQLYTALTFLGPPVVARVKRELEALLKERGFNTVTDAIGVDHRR

rDHODH = rDHODH (Rattus norvegicus, UniProt Q63707); experiment: DHODH steady-state inhibition, DCIP assay; assay type: biochemical
Chain of rDHODH (Q63707 29-395 limits assumed): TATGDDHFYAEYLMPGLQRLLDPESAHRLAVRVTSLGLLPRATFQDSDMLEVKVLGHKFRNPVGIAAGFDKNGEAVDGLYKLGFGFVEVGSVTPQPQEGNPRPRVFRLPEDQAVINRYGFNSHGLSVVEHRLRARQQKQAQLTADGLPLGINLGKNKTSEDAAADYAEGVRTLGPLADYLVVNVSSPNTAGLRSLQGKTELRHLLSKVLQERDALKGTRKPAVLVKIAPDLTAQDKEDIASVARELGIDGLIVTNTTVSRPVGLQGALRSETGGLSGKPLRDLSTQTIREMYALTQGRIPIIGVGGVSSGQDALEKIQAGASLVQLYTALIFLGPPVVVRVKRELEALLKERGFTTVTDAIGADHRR

Compound	–TΔS PfDHODH (PfDHODH [1])	ΔH PfDHODH (PfDHODH [1])	inhibition of the human enzyme (in words) (HsDHODH)	IC50 (HsDHODH L46A) [µM]	IC50 (HsDHODH L359A) [µM]	IC50 (HsDHODH R136A) [µM]	IC50 (P. falciparum 3D7 cells) [µM]	IC50 (PfDHODH [2]) [µM]	ΔH rat DHODH (rat DHODH)	–TΔS rat DHODH (rat DHODH)	inhibition of dog DHODH (in words) (dDHODH)	inhibition of mouse DHODH (in words) (mDHODH)	inhibition of rat DHODH (in words) (rDHODH)
Cc1cc(Nc2ccc(C(F)(F)F)cc2)n2nc(C(C)(F)F)nc2n1 [Compound 5, 2-(1,1-difluoroethyl)-5-methyl-N-[4-(trifluoromethyl)phenyl]-[1,2,4]triazolo[1,5-a]pyrimidin-7-amine]	–2.2 kcal/mol	–8.3 (−9.2 to −7.5) kcal/mol	did not inhibit										
Cc1cc(Nc2ccc(C(F)(F)F)c(F)c2)n2nc(C(C)(F)F)nc2n1 [Compound 10, 2-(1,1-difluoroethyl)-N-[3-fluoro-4-(trifluoromethyl)phenyl]-5-methyl [1,2,4]triazolo[1,5-a]pyrimidin-7-amine]	–2.1 kcal/mol	–9.0 (−9.3 to −8.7) kcal/mol		> 100	> 100	> 100							
Cc1cc(Nc2cc(F)c(C(F)(F)F)c(F)c2)n2ncnc2n1 [Compound 9, N-(3,5-difluoro-4-(trifluoromethyl)phenyl)-5-methyl-[1,2,4]triazolo[1,5-a]pyrimidin-7-amine]							0.22	0.13					
Cc1cc(Nc2cc(F)c(C(F)(F)F)c(F)c2)n2nc(C(F)(F)F)nc2n1 [Compound 6, N-(3,5-difluoro-4-(trifluoromethyl)phenyl)-2-(trifluoromethyl)-5-methyl-[1,2,4]-triazolo[1,5-a]pyrimidin-7-amine]	–4.5 kcal/mol	–6.5 (−6.9 to −6.2) kcal/mol		> 100		> 100			–1.6 (−1.8 to −1.5) kcal/mol				
Cc1cc(Nc2cc(F)c(C(F)(F)F)c(F)c2)n2nc(C(C)(F)F)nc2n1 [Compound 11, N-(3,5-difluoro-4-(trifluoromethyl)phenyl)-2-(1,1-difluoroethyl)-5-methyl[1,2,4]-triazolo-[1,5-a]pyrimidin-7-amine]	–3.3 kcal/mol	–8.1 (−8.8 to −7.5) kcal/mol		> 100	> 100	> 100			–2.1 (−2.5 to −1.9) kcal/mol	–8.0 kcal/mol			
Cc1cc(Nc2ccc(C(F)(F)F)cc2)n2ncnc2n1 [Compound 8, (5-methyl[1,2,4]triazolo[1,5-a]pyrimidin-7-yl)(4-trifluoromethylphenyl)amine]	1.5 kcal/mol	–10 (−12 to −9.8) kcal/mol	did not inhibit								did not inhibit	did not inhibit	did not inhibit
